{"source": "patent US20250298027A1", "about": "“METHOD OF EVALUATING SMALL MOLECULE DISTRIBUTION USING TELLUROPHENE ANALOGUES” (THE GOVERNING COUNCIL OF THE UNIVERSITY OF TORONTO, priority 2022, published 2025)", "key": {"[1]": {"target": "T1, Top2 (Homo sapiens, UniProt P11388)", "T1 construct": "purchased TopoGEN, Inc", "T1 sequence (P11388 whole entry)": "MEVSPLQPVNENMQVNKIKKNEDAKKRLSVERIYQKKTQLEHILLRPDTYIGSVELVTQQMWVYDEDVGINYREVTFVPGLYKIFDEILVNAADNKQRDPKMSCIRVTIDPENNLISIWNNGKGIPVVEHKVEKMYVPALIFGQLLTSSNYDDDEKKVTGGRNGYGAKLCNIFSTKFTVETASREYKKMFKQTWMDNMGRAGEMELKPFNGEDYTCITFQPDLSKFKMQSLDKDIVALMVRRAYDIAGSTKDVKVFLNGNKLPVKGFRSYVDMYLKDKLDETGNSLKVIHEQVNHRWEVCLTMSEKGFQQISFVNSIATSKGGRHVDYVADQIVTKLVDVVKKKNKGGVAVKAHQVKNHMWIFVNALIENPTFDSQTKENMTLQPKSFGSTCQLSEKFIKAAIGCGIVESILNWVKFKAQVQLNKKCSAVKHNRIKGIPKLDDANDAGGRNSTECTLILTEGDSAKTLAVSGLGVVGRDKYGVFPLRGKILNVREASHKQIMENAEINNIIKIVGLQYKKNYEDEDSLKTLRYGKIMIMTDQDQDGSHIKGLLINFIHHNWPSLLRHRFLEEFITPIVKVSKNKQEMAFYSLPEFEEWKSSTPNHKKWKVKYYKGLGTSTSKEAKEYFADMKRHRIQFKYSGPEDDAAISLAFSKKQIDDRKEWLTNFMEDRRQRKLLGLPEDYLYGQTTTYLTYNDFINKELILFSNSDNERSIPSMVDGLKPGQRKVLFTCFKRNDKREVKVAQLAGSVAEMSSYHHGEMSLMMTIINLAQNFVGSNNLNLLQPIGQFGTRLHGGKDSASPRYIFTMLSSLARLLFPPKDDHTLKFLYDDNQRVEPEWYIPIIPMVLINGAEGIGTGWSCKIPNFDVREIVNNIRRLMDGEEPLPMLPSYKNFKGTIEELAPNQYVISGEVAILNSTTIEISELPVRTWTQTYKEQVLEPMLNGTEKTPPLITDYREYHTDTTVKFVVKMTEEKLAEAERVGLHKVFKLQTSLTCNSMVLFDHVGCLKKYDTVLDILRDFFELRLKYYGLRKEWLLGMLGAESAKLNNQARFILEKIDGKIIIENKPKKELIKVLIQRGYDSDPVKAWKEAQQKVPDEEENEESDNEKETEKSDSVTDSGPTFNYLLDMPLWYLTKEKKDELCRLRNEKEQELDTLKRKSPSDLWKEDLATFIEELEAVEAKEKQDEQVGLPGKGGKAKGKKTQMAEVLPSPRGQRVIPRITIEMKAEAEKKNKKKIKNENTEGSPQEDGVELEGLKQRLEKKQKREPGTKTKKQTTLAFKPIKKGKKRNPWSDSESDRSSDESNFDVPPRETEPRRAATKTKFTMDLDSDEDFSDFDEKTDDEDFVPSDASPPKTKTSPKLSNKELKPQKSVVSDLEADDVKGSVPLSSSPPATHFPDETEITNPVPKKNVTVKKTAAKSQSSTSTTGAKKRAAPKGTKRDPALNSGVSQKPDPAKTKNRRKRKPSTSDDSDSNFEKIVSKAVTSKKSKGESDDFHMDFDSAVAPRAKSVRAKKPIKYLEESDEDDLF", "assay": "Top2 decatenation assay using kinetoplast DNA", "type": "biochemical", "method": "The relative Top2 inhibitory activity of 1 in comparison to teniposide was evaluated in decatenation assays using kinetoplast DNA (kDNA). Decatenation of the DNA, catalyzed by Top2, can be readily resolved using agarose gel electrophoresis.\nTop2 decatenation assay: The assay was performed according to manufacturer's protocol (TopoGEN, Inc.). The total reaction volume was 20 μL of assay buffer (120 mM KCl, 50 mM Tris-HCl, 10 mM MgCl2, 0.5 mM DTT, 0.5 mM ATP, and 30 μg/mL BSA) and 120 ng of kinetoplast DNA (kDNA) substrate. One unit of TopoII enzyme in was added to reaction microfuge tubes in the presence or absence of inhibitor. The reaction was incubated for 30 min at 37° C. The reaction was stopped by addition of 5 μL of stop buffer (5% sarkosyl, 0.025% bromophenolblue, and 50% glycerol). The samples were then analyzed using electrophoresis using a 1% agarose gel in Tris-borate-EDTA buffer with 0.5 pg/mL ethidium bromide stain. Gels were imaged using Syngene G: Box Gel Imager (Chemi-XT4 GENESys software with preset for ethidium bromide stained agarose gels). Band intensities were analyzed using ImageJ software."}, "[2]": {"test_system": "PANC-1 cells", "assay": "alamarBlue viability assay in PANC-1 cells", "type": "cell-based, Human", "settings": "maximum dose of 25 μM, 72 hours exposure", "method": "Similarly, PANC1 cells were characterized for later in vivo experiments. Using an alamarBlue viability assay and a proliferative assay, PANC-1 cells were incubated with 1 or teniposide.\nAlamarBlue assay: PANC-1 cells were seeded into black, clear-bottom 96-well assay plates (Corning; CLS3603) and incubated for 24 hours. The medium was replaced with […] of teniposide or compound 1. After 72 hours exposure to drug, alamarBlue (Thermo Fisher Scientific; DAL1100) cell viability reagent was added and incubated for 4 hours at 37° C. Fluorescence intensity was measured using an excitation wavelength of 560 nm and an emission of 590 nm. Cell viability was calculated by normalizing to an untreated control."}, "[3]": {"test_system": "pH2AX^Ser139", "assay": "pH2AX Western blotting in PANC-1 cells", "type": "cell-based, Human", "settings": "1 μM, 24 and 48 hours", "method": "Next, the ability of 1 to induce DSBs—the dominant type of DNA damage resulting from Top2 inhibition was investigated. In response to DSBs, a cascade of DNA repair mechanisms are triggered, including-phosphorylation of the histone variant H2AX at Ser139. Thus, the level of pH2AX^Ser139 serves as a reliable marker for Top2-linked DSBs. Western blotting was used to measure pH2AX^Ser139 in PANC-1 cells treated with 1 μM of either 1 or teniposide for 24 and 48 hours.\npH2AX Blotting: PANC-1 cells (0.5×10^6) cells were seeded in 60 mm plastic petri dishes (Corning Inc. NY) and incubated for 18 h. The spent medium is removed and replaced with fresh medium containing drug ([…]) and incubated for either 24 or 48h. Control cells were treated with DMSO only. The cells were then lysed with RIPA buffer (25 mM Tris·HCl PH 7.6, 150 mM NaCl, 1% NP-40, 1% sodium deoxycholate, 0.1% SDS) (ThermoFisher Scientific) containing Halt Protease Inhibitor Cocktail (Cat. No. 78410) and Halt Phosphatase Inhibitor Cocktail (Cat. No. 78420) as per manufacturer's protocol. […] Antibodies (Abcam, Cambridge, MA) targeting the following proteins were used H2AX (S139) (ab11174, polyclonal) and β-tubulin (ab6046, polyclonal)."}, "[4]": {"test_system": "HL-60 cells", "assay": "Competitive binding / cell labelling by mass cytometry (CyTOF) in HL-60 cells", "type": "cell-based", "method": "To determine if cellular labelling with 1 was dependent on the presence of Top2-DNA binding sites a competitive binding MC experiment was carried out using Teniposide. HL-60 cells were treated with teniposide (10 μM) for two hours to saturate intracellular Top2-DNA ternary complexes with an unlabelled ligand, next 1 (2 or 10 μM) was introduced into the cell media and the suspension was gently mixed. After two hours, cells were harvested and washed three times with PBS. Cells were then fixed and permeabilized, followed by DNA staining with Ir-intercalator. Cell pellets were analyzed by MC for ^130Te content (FIG. 6).\nAdditionally, co-incubation experiments were conducted where HL-60 cells were treated with a cocktail of 1 (2 μM) and either 2, 10, or 20 μM teniposide (FIG. 6B). […] Without wishing to be bound by theory, it is hypothesized that the lack of competitive labelling observed in these experiments may be due to a combination of inhibition of Top2 and a considerable degree of non-specific binding with other cellular components. Several reports have documented the non-specific accumulation of etoposide and teniposide via oxidation catalyzed by cytochrome P450-dependent monooxygenases, peroxidases and tyrosinase enzymes. […] It is also plausible these reactive species modify other intracellular proteins, thus contributing to drug accumulation inside cells, but in a promiscuous and irreversible manner. […] In this case, the non-specific binding may dominate the target binding of teniposide, and likely its analogue Te-teniposide 1.\nCYTOF® labelling: For pre-saturation experiment, 3×10^6 HL-60 cells (5×10^5 cells/mL) were incubated with appropriate teniposide concentration for 2 hours at 37° C. in a humidified atmosphere of 5% CO2 in air. Compound 1 was pipetted into the cell suspension and gently mixed. Cells were further incubated for 2 hours and then centrifuged for 6 min at 300×g, and the media was aspirated. For controls, HL-60 cells were treated with teniposide or compound 1 for 4 hours consecutively. […] Samples were then injected into the CYTOF® Helios™ and analyzed."}, "[5]": {"test_system": "pH2AX^Ser139", "assay": "pH2AX immunohistochemistry of PANC-1 xenograft tumour sections", "type": "in vivo, mice", "settings": "20 mg/kg IP, 2 hours", "method": "PANC-1 xenograft-bearing mice were injected with either teniposide or the Te-teniposide analogue 1 IP. A dose of 20 mg/kg was selected based on literature reports detailing teniposide drug delivery strategies. After 2 hours, mice were sacrificed and tissues of interest were harvested, formalin fixed, and paraffin embedded. Tissue sections (5 um) were cut and mounted onto microscopy slides. The expression of pH2AX^Ser139 levels were first assessed by immunohistochemistry. Serial sections derived from PANC-1 xenograft tumours were stained with primary antibody and subsequently HRP-conjugated secondary antibody for standard brown staining. DSBs are indicated by large, discrete pH2AX^Ser139 foci. Representative images of immunostained slides show increased pH2AX^Ser139 levels in treated mice relative to saline injected control with clear, punctate staining (FIG. 7)."}}}
{"smiles": "COc1cc([C@@H]2c3cc4c(cc3[C@@H](OC3OC5COC(c6ccc[te]6)OC5C(O)C3O)[C@H]3COC(=O)C23)OCO4)cc(OC)c1O", "note": "(some centres unmarked) [Compound 1, Tellurium-labelled teniposide]", "values": [{"measurement": "IC50", "setting": "[1]", "value": 5.6, "unit": "µM"}, {"measurement": "inhibition of the decatenation reaction", "setting": "[1]; 5, 10, 25 and 50 μM", "value": "dose-dependent inhibition"}, {"measurement": "loss of cell viability in PANC-1 cells", "setting": "[2]", "value": "almost complete loss of cell viability"}, {"measurement": "levels of pH2AX^Ser139 relative to DMSO-treated control", "setting": "[3]", "value": "Increased levels"}, {"measurement": "competition for Top2 in co-incubation", "setting": "[4]; 1 (2 μM) with 2, 10 or 20 μM teniposide", "value": "no competition"}, {"measurement": "cell labelling (^130Te) by MC", "setting": "[4]; 2 and 10 μM", "value": "readily detected"}, {"measurement": "reduction of ^130Te signal in cells pretreated with unlabeled teniposide", "setting": "[4]; teniposide 10 μM for two hours, then 1 at 2 or 10 μM for two hours", "value": "not observed"}, {"measurement": "pH2AX^Ser139 levels in tumour sections relative to saline injected control", "setting": "[5]", "value": "increased"}]}
